MIC and MICs data for 28 compounds are collected here from patent US20050124562A1, “Bis-quinazoline compounds for the treatment of bacterial infections” (priority 2003, published 2005).

≈ marks a conversion by molar mass, not a printed value. Counter-ions that a name gives are not always drawn. Like-named read-outs stand apart in the source and are kept apart here.

Common to all, as to format: cell-based
Test [1] deals with S. aureus, E. faecalis, S. pyogenes and S. pneumoniae. Nature of the test: Broth microdilution MIC (NCCLS), gram-positive strains. Here is the method:
(§1) Representative bis-quinazolines were tested for antibacterial activity using the […] microdilution method to determine their minimum inhibitory concentrations (MICs). All compounds were tested using standard methods in accordance with NCCLS guidelines (National Committee for Clinical Laboratory Standards. 2003. Methods for dilution antimicrobial susceptibility testing for bacteria that grow aerobically. Approved Standard M-7 A-6, NCCLS, Wayne, Pa.). The bacterial strains used in the susceptibility tests were obtained from the American Type Culture Collection (ATCC) and included resistant phenotypes such as oxacillin-resistant S. aureus (ORSA) and vancomycin-resistant enterococci (VRE). The minimum bactericidal concentrations (MBCs) were determined for selected organisms. The effect of protein binding on the antibacterial activity of representative bis-quinazolines were determined by conducting MIC tests in the presence of human serum.
On the technique in general: Dilution methods test growth across graded concentrations, often in twofold steps.

In the next test the test system is M. catarrhalis. Kind of test: Broth microdilution MIC (NCCLS), M. catarrhalis. The note with it: Moraxella catarrhalis; some strains of M. catarrhalis; read-out: MIC range. On the procedure:
as §1

In a further test the test system is H. influenzae. Kind of test: Broth microdilution MIC (NCCLS), H. influenzae. The note with it: Haemophilus influenzae; some strains of H. influenzae. Here is the method: as §1
In test [2] the test system is efflux mutants of E. coli. Nature of the test: Broth microdilution MIC (NCCLS), E. coli efflux mutants. To be noted: Escherichia coli, read-out: MICs. Here is the method:
as §1

Test [3] concerns efflux mutants of P. aeruginosa. Nature of the test: Broth microdilution MIC (NCCLS), P. aeruginosa efflux mutants. The note with it: for MIC: Pseudomonas aeruginosa, read-out: MICs; for MICs: efflux mutants of P. aeruginosa. Here is the method: as §1
The mark [4] stands for this setting: range against some strains of S. aureus, E. faecalis, S. pyogenes and S. pneumoniae, read-out: MIC.

As to `COc1cc2nc(Nc3nc(O)c4cc(OCCN5CCCC(O)C5)ccc4n3)nc(C)c2cc1OC.O=C(O)C(F)(F)F` (stereo not drawn) [Example 157, 2-(6,7-Dimethoxy-4-methyl-quinazolin-2-ylamino)-6-[2-(3-hydroxy-piperidin-1-yl)-ethoxy]-quinazolin-4-ol trifluoroacetate salt], the MIC in test [1] (setting [4]) is 0.06 to 16 µg/mL; in the test on M. catarrhalis, 2 to 64 µg/mL; in the test on H. influenzae it was 16 to 32 µg/mL; in test [2], 16 to 64 µg/mL; in test [3] it was 64 µg/mL.
Taken in the same sequence, the figures for `CCN(CC)CCOc1ccc2nc(Nc3nc(O)c4cc(N)cc(C)c4n3)nc(C)c2c1.O=C(O)C(F)(F)F` [Example 125, 6-Amino-2-[6-(2-diethylamino-ethoxy)-4-methyl-quinazolin-2-ylamino]-8-methyl-quinazolin-4-ol trifluoroacetate salt] were 0.06 to 16 µg/mL, 2 to 64 µg/mL, 16 to 32 µg/mL, 16 to 64 µg/mL and 64 µg/mL.
Taken in the same sequence, the figures for `COc1cc2nc(Nc3nc(O)c4c(OC)ccc(OC)c4n3)nc(C)c2cc1OC.O=C(O)C(F)(F)F` [Example 99, 2-(6,7-Dimethoxy-4-methyl-quinazolin-2-ylamino)-5,8-dimethoxy-quinazolin-4-ol trifluoroacetate salt] were 0.06 to 16 µg/mL, 2 to 64 µg/mL, 16 to 32 µg/mL, 16 to 64 µg/mL and 64 µg/mL.
Taken in the same sequence, the figures for `COc1cc2nc(Nc3nc(O)c4cc(N(C)C)cc(C)c4n3)nc(C)c2cc1OC.O=C(O)C(F)(F)F` [Example 121, 2-(6,7-Dimethoxy-4-methyl-quinazolin-2-ylamino)-6-dimethylamino-8-methyl-quinazolin-4-ol trifluoroacetate salt] were 0.06 to 16 µg/mL, 2 to 64 µg/mL, 16 to 32 µg/mL, 16 to 64 µg/mL and 64 µg/mL.
Regarding `COc1cc2c(C)nc(Nc3nc(O)c4cccc(F)c4n3)nc2cc1O.O=C(O)C(F)(F)F` [Example 104, 2-(8-Fluoro-4-hydroxy-quinazolin-2-ylamino)-6-methoxy-4-methyl-quinazolin-7-ol trifluoroacetate salt], the MIC in test [1] (setting [4]) was 0.06 to 16 µg/mL; in the test on M. catarrhalis it was 2 to 64 µg/mL; against H. influenzae it was 16 to 32 µg/mL; in test [2], 16 to 64 µg/mL; in test [3] it was 64 µg/mL.
As to `COc1cc2nc(Nc3nc(O)c4cc([N+](=O)[O-])cc(C)c4n3)nc(C)c2cc1OC.O=C(O)C(F)(F)F` [Example 66], in test [3], the MICs amounted to 64 µg/mL.
As for `COc1cc2nc(Nc3nc(O)c4cc(OCCN5CCC(O)C5)ccc4n3)nc(C)c2cc1OC.O=C(O)C(F)(F)F` (stereo not drawn) [Example 155, 2-(6,7-Dimethoxy-4-methyl-quinazolin-2-ylamino)-6-[2-(3-hydroxy-pyrrolidin-1-yl)-ethoxy]-quinazolin-4-ol trifluoroacetate salt], the MICs in test [3] was 64 µg/mL.
Same read-out and setting: then `COc1cc2nc(Nc3nc(O)c4cc(OCCNC(CO)CC(C)C)ccc4n3)nc(C)c2cc1OC` (stereo not drawn) [Example 162, 2-(6,7-Dimethoxy-4-methyl-quinazolin-2-ylamino)-6-{2-[(1-hydroxymethyl-3-methylbutyl)-amino]-ethoxy}-quinazolin-4-olTrifluoroacetate salt], with 64 µg/mL.
On to `COc1ccc([N+](=O)[O-])c2c(C)nc(Nc3nc(O)c4ccccc4n3)nc12.O=C(O)C(F)(F)F` [Example 26, 2-(8-Methoxy-4-methyl-5-nitro-quinazolin-2-ylamino)-quinazolin-4-ol trifluoroacetate salt], for which the MIC in test [1] (setting [4]) was 0.06 to 16 µg/mL.
On the same count and under the same terms, then `CC(=O)O.COc1cc2c(C)nc(Nc3nc(O)c4cc(C)cc(C)c4n3)nc2cc1F` [Example 44, 2-(7-Fluoro-6-methoxy-4-methyl-quinazolin-2-ylamino)-6,8-dimethyl-quinazolin-4-ol acetate salt], with 0.06 to 16 µg/mL.
Consider `COc1cc2nc(Nc3nc(O)c4cc(OCCN5CCC(O)C5)ccc4n3)nc(C)c2cc1OC.O=C(O)C(F)(F)F` (stereo not drawn) [Example 156, 2-(6,7-Dimethoxy-4-methyl-quinazolin-2-ylamino)-6-[2-(3-hydroxy-pyrrolidin-1-yl)-ethoxy]-quinazolin-4-ol trifluoroacetate salt], for which the MICs in test [3] is 64 µg/mL.
Take `COc1cc(OC)c2nc(Nc3nc(O)c4c(OC(C)C)cccc4n3)nc(C)c2c1.O=C(O)C(F)(F)F` [Example 111, 2-(6,8-Dimethoxy-4-methyl-quinazolin-2-ylamino)-5-isopropoxy-quinazolin-4-ol trifluoroacetate salt]: in test [1] (setting [4]), the MIC lay in the range of 0.06 to 16 µg/mL.
Same read-out and setting: for `COc1cc2c(C)nc(Nc3nc(O)c4cccc(OC)c4n3)nc2cc1O.O=C(O)C(F)(F)F` [Example 103, 2-(4-Hydroxy-8-methoxy-quinazolin-2-ylamino)-6-methoxy-4-methyl-quinazolin-7-ol trifluoroacetate salt] the value was 0.06 to 16 µg/mL; for `COc1cc(OC)c2nc(Nc3nc(O)c4cc(N)cc(OC)c4n3)nc(C)c2c1.O=C(O)C(F)(F)F` [Example 124, 6-Amino-2-(6,8-dimethoxy-4-methyl-quinazolin-2-ylamino)-8-methoxy-quinazolin-4-ol trifluoroacetate salt], 0.06 to 16 µg/mL.
In test [3], “2-[4-Hydroxy-6-(2-morpholin-4-yl-ethoxy)-quinazolin-2-ylamino]-6,7-dimethoxy-quinazolin-4-ol trifluoroacetate salt [Example 150]” gave an MICs of 64 µg/mL.
In the case of `COc1ccc2nc(Nc3nc(O)c4cc(N)cc(C)c4n3)nc(C)c2c1.O=C(O)C(F)(F)F` [Example 22, 6-Amino-2-(6-methoxy-4-methyl-quinazolin-2-ylamino)-8-methyl-quinazolin-4-ol trifluoroacetate salt], in test [1] (setting [4]), the MIC was in the range of 0.06 to 16 µg/mL.
Regarding `COc1cc2c(C)nc(Nc3nc(O)c4cccc(F)c4n3)nc2c(OC)c1OC.O=C(O)C(F)(F)F` [Example 118, 8-Fluoro-2-(6,7,8-trimethoxy-4-methyl-quinazolin-2-ylamino)-quinazolin-4-ol trifluoroacetate salt], in test [1] (setting [4]), the MIC is 0.06 to 16 µg/mL.
On to `COc1cc(OC)c2nc(Nc3nc(O)c4cccc(C)c4n3)nc(C)c2c1.O=C(O)C(F)(F)F` [Example 46, 2-(6,8-Dimethoxy-4-methyl-quinazolin-2-ylamino)-8-methyl-quinazolin-4-ol trifluoroacetate salt], for which, in test [1] (setting [4]), the MIC fell in the range of 0.06 to 16 µg/mL.
Same read-out and setting: then `COc1ccc2nc(Nc3nc(O)c4c(OC)cccc4n3)nc(C)c2c1.O=C(O)C(F)(F)F` [Example 37, 5-Methoxy-2-(6-methoxy-4-methyl-quinazolin-2-ylamino)-quinazolin-4-ol trifluoroacetate salt], with 0.06 to 16 µg/mL.
Same read-out and setting: then `COc1c(F)ccc2c(C)nc(Nc3nc(O)c4cccc(F)c4n3)nc12.O=C(O)C(F)(F)F` [Example 119, 8-Fluoro-2-(7-fluoro-8-methoxy-4-methyl-quinazolin-2-ylamino)-quinazolin-4-ol trifluoroacetate salt], with 0.06 to 16 µg/mL.
As to `COc1cccc2c(C)nc(Nc3nc(O)c4ccccc4n3)nc12` [Example 58, 2-(8-Methoxy-4-methyl-quinazolin-2-ylamino)-quinazolin-4-ol], in test [1], the MIC is 0.06 to 16 µg/mL (≈ 0.18 to 48 µM).
Regarding `COc1cc2nc(Nc3nc(O)c4cc(OCCNNCCO)ccc4n3)nc(C)c2cc1OC.O=C(O)C(F)(F)F` [Example 176, 2-(6,7-Dimethoxy-4-methyl-quinazolin-2-ylamino)-6-{2-[N′-(2-hydroxy-ethyl)-hydrazino]-ethoxy}-quinazolin-4-ol trifluoroacetate salt], in test [1] (setting [4]), the MIC was in the range of 0.06 to 16 µg/mL.
As to `COc1cccc2c(C)nc(Nc3nc(O)c4cccc(C)c4n3)nc12` [Example 51, 2-(8-Methoxy-4-methyl-quinazolin-2-ylamino)-8-methyl-quinazolin-4-ol], in test [1], the MIC fell in the range of 0.06 to 16 µg/mL (≈ 0.173 to 46.1 µM).
With `COc1ccc2nc(Nc3nc(O)c4cc(N)ccc4n3)nc(C)c2c1.O=C(O)C(F)(F)F` [Example 47, 6-Amino-2-(6-methoxy-4-methyl-quinazolin-2-ylamino)-quinazolin-4-ol trifluoroacetate salt], in test [1] (setting [4]), the MIC was 0.06 to 16 µg/mL.
`COc1ccc2nc(Nc3nc(O)c4cccc(C)c4n3)ncc2c1` [Example 20, 2-(6-Methoxy-quinazolin-2-ylamino)-8-methyl-quinazolin-4-ol] came in with an MIC in test [1] of 0.06 to 16 µg/mL (≈ 0.18 to 48 µM).
As for `COc1cc(OC)c2nc(Nc3nc(O)c4cc(N)cc(C)c4n3)nc(C)c2c1.O=C(O)C(F)(F)F` [Example 126, 6-Amino-2-(6,8-dimethoxy-4-methyl-quinazolin-2-ylamino)-8-methyl-quinazolin-4-ol trifluoroacetate salt], in test [1] (setting [4]), the MIC lay in the range of 0.06 to 16 µg/mL.
Still for that read-out and setting: for `COc1cc2nc(Nc3nc(O)c4cc(OCCCl)ccc4n3)nc(C)c2cc1OC.O=C(O)C(F)(F)F` [Example 105, 6-(2-Chloro-ethoxy)-2-(6,7-dimethoxy-4-methyl-quinazolin-2-ylamino)-quinazolin-4-ol trifluoroacetate salt] the value was 0.06 to 16 µg/mL; for `COc1ccc2c(C)nc(Nc3nc(O)c4ccccc4n3)nc2c1OC.O=C(O)C(F)(F)F` [Example 74, 2-(7,8-Dimethoxy-4-methyl-quinazolin-2-ylamino)-quinazolin-4-ol trifluoroacetate salt], 0.06 to 16 µg/mL.
